# From ChEMBL document CHEMBL1201862, “PubChem BioAssay data set” (2004)
# Several values for one entry are separate records, joined by “and”; a condition that tells them apart may be missing. Equal entries are not always repeated.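 48-hour exposure; five concentrations; linearly interpolated endpoints. Here, GI50 denotes the concentration required for 50% inhibition of growth.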 Activity calls are given as the source filed them. Cut-off read from the data, not from the text of the source: active = GI50 up to about 1.1 µM and inactive = higher.
# How the values were obtained:
# Assay in all cases: inhibition of tumour cell growth, NCI panel, 48 h
# [1] = system: IGROV-1
# [2] = system: HOP-62
# [3] = system: SN12C
# [4] = system: NCI/ADR-RES
# [5] = system: CCRF-CEM
# [6] = system: SK-MEL-5
# [7] = system: UACC-62
# [8] = system: A549
# [9] = system: PC-3
# [10] = system: HT-29
# [11] = system: DU-145
# [12] = system: Malme-3M
# [13] = system: OVCAR-5
# [14] = system: COLO 205
# [15] = system: NCI-H460
# [16] = system: SW-620
# [17] = system: HCC 2998
# [18] = system: SK-OV-3
# [19] = system: CAKI-1
# [20] = system: KM-20L2
Compound,GI50 [1],GI50 [2],GI50 [3],GI50 [4],GI50 [5],GI50 [6],GI50 [7],GI50 [8],GI50 [9],GI50 [10],GI50 [11],GI50 [12],GI50 [13],GI50 [14],GI50 [15],GI50 [16],GI50 [17],GI50 [18],GI50 [19],GI50 [20]
COc1cc2c(cc1O)CCN[C@@]21CS[C@H]2c3c(OC(C)=O)c(C)c4c(c3C(COC1=O)N1C2C2c3c(cc(C)c(OC)c3O)CC([C@@H]1O)N2C)OCO4 (stereo not given in full),< 0.0001 µM (active),< 0.0001 µM (active),< 0.0001 µM (active),0.0001 µM (active),< 0.1 nM (active),< 0.0001 µM (active),< 0.0001 µM (active),< 0.0001 µM (active),< 0.0001 µM (active),0.00128 µM (active),< 0.0001 µM (active),< 0.0001 µM (active),0.0001 µM (active),< 0.0001 µM (active),< 0.0001 µM (active),< 0.0001 µM (active),0.0001 µM (active),0.0001 µM (active),< 0.0001 µM (active),< 1e-06 µM (active)
Nn1c(-c2cccc(Cl)c2)nc2ccccc2c1=O,> 100 µM (inactive),> 100 µM (inactive),> 100 µM (inactive),–,51500 nM (inactive),> 100 µM (inactive),> 100 µM (inactive),> 100 µM (inactive),–,> 100 µM (inactive),–,> 100 µM (inactive),> 100 µM (inactive),> 100 µM (inactive),> 100 µM (inactive),> 100 µM (inactive),> 100 µM (inactive),> 100 µM (inactive),> 100 µM (inactive),> 100 µM (inactive)
Nc1ncnc2c1ncn2C1CC(O)C(CO)O1 (stereo not given),> 100 µM (inactive),> 100 µM (inactive),> 100 µM (inactive),> 100 µM (inactive),> 100 µM (inactive) and 70.5 µM (inactive),> 100 µM (inactive),> 100 µM (inactive),> 100 µM (inactive),> 100 µM (inactive),> 100 µM (inactive),> 100 µM (inactive),> 100 µM (inactive),> 100 µM (inactive),> 100 µM (inactive),> 100 µM (inactive),> 100 µM (inactive),> 100 µM (inactive),> 100 µM (inactive),> 100 µM (inactive),> 100 µM (inactive)
COc1cc([C@H]2c3[nH]c4ccccc4c3C[C@H]3COC(=O)N32)cc(OC)c1O,0.0502 µM (active),0.0462 µM (active),2.43 µM (inactive),0.0667 µM (active),20.9 nM (active),0.0193 µM (active),0.0209 µM (active),0.0792 µM (active),0.0378 µM (active),0.0228 µM (active),–,3.95 µM (inactive),13.3 µM (inactive),0.166 µM (active),0.0312 µM (active),0.0268 µM (active),0.143 µM (active),–,0.0395 µM (active),0.04 µM (active)
